Reference: patent US8192962B2, “Processes for detecting toxic substances” (Daikin Industries, Ltd., priority 2001, dated 2012)

Tested on: Unknown protein yeast genes
Test: DNA chip mRNA expression in yeast, unknown protein yeast genes (Table 1)
Format: cell-based, Saccharomyces cerevisiae S288C
Summary of the method: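 Ratios compare mRNA levels in stressed and control S. cerevisiae. Each toxicant was applied for two hours to log-phase cultures at 25° C. at a sub-lethal, growth-inhibiting level; fluorescent cDNA (Cy3- or Cy5-dUTP) was hybridized to a genome-wide yeast chip for over 12 h at 65° C.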

SMILES: C=CC=O [(14), acrolein]
- The level of expressed mRNA in the presence of chemical substance/The level of expressed mRNA in the absence of chemical substance (yeast gene YAL053W, incubated two hours with chemical substance): 0.7
- The level of expressed mRNA in the presence of chemical substance/The level of expressed mRNA in the absence of chemical substance (yeast gene YBL048W): 2.0
- The level of expressed mRNA in the presence of chemical substance/The level of expressed mRNA in the absence of chemical substance (yeast gene YBL107C): 2.5
- The level of expressed mRNA in the presence of chemical substance/The level of expressed mRNA in the absence of chemical substance (yeast gene YDL072C, incubated two hours with chemical substance): 1.8
- The level of expressed mRNA in the presence of chemical substance/The level of expressed mRNA in the absence of chemical substance (yeast gene YDL204W, incubated two hours with chemical substance): 2.4
- The level of expressed mRNA in the presence of chemical substance/The level of expressed mRNA in the absence of chemical substance (yeast gene YDL222C, incubated two hours with chemical substance): 1.3
- The level of expressed mRNA in the presence of chemical substance/The level of expressed mRNA in the absence of chemical substance (yeast gene YDR330W, incubated two hours with chemical substance): 1.1
- The level of expressed mRNA in the presence of chemical substance/The level of expressed mRNA in the absence of chemical substance (yeast gene YDR411C, incubated two hours with chemical substance): 0.8
- The level of expressed mRNA in the presence of chemical substance/The level of expressed mRNA in the absence of chemical substance (yeast gene YDR511W, incubated two hours with chemical substance): 2.2
- The level of expressed mRNA in the presence of chemical substance/The level of expressed mRNA in the absence of chemical substance (yeast gene YDR545W, incubated two hours with chemical substance): 0.7
- The level of expressed mRNA in the presence of chemical substance/The level of expressed mRNA in the absence of chemical substance (yeast gene YEL001C, incubated two hours with chemical substance): 1.3
- The level of expressed mRNA in the presence of chemical substance/The level of expressed mRNA in the absence of chemical substance (yeast gene YER004W, incubated two hours with chemical substance): 1.8
- The level of expressed mRNA in the presence of chemical substance/The level of expressed mRNA in the absence of chemical substance (yeast gene YER035W, incubated two hours with chemical substance): 1.0
- The level of expressed mRNA in the presence of chemical substance/The level of expressed mRNA in the absence of chemical substance (yeast gene YER079W, incubated two hours with chemical substance): 1.6
- The level of expressed mRNA in the presence of chemical substance/The level of expressed mRNA in the absence of chemical substance (yeast gene YER106W, incubated two hours with chemical substance): 1.5
- The level of expressed mRNA in the presence of chemical substance/The level of expressed mRNA in the absence of chemical substance (yeast gene YER158C, incubated two hours with chemical substance): 0.9
- The level of expressed mRNA in the presence of chemical substance/The level of expressed mRNA in the absence of chemical substance (yeast gene YER163C, incubated two hours with chemical substance): 1.9
- The level of expressed mRNA in the presence of chemical substance/The level of expressed mRNA in the absence of chemical substance (yeast gene YER175C, incubated two hours with chemical substance): 1.1
- The level of expressed mRNA in the presence of chemical substance/The level of expressed mRNA in the absence of chemical substance (yeast gene YFL006W, incubated two hours with chemical substance): 1.7
- The level of expressed mRNA in the presence of chemical substance/The level of expressed mRNA in the absence of chemical substance (yeast gene YFL010C, incubated two hours with chemical substance): 1.4
- The level of expressed mRNA in the presence of chemical substance/The level of expressed mRNA in the absence of chemical substance (yeast gene YFL024C): 3.3
- The level of expressed mRNA in the presence of chemical substance/The level of expressed mRNA in the absence of chemical substance (yeast gene YFL032W, incubated two hours with chemical substance): 0.6
- The level of expressed mRNA in the presence of chemical substance/The level of expressed mRNA in the absence of chemical substance (yeast gene YGL037C, incubated two hours with chemical substance): 1.0
- The level of expressed mRNA in the presence of chemical substance/The level of expressed mRNA in the absence of chemical substance (yeast gene YGL047W, incubated two hours with chemical substance): 2.3
- The level of expressed mRNA in the presence of chemical substance/The level of expressed mRNA in the absence of chemical substance (yeast gene YGL053W, incubated two hours with chemical substance): 1.1
- The level of expressed mRNA in the presence of chemical substance/The level of expressed mRNA in the absence of chemical substance (yeast gene YGL121C): 5.8
- The level of expressed mRNA in the presence of chemical substance/The level of expressed mRNA in the absence of chemical substance (yeast gene YGL199C, incubated two hours with chemical substance): 0.8
- The level of expressed mRNA in the presence of chemical substance/The level of expressed mRNA in the absence of chemical substance (yeast gene YGR101W, incubated two hours with chemical substance): 0.9
- The level of expressed mRNA in the presence of chemical substance/The level of expressed mRNA in the absence of chemical substance (yeast gene YGR110W): 2.8
- The level of expressed mRNA in the presence of chemical substance/The level of expressed mRNA in the absence of chemical substance (yeast gene YGR130C, incubated two hours with chemical substance): 0.9
- The level of expressed mRNA in the presence of chemical substance/The level of expressed mRNA in the absence of chemical substance (yeast gene YGR154C, incubated two hours with chemical substance): 2.2
- The level of expressed mRNA in the presence of chemical substance/The level of expressed mRNA in the absence of chemical substance (yeast gene YGR221C, incubated two hours with chemical substance): 1.4
- The level of expressed mRNA in the presence of chemical substance/The level of expressed mRNA in the absence of chemical substance (yeast gene YHR138C, incubated two hours with chemical substance): 3.4
- The level of expressed mRNA in the presence of chemical substance/The level of expressed mRNA in the absence of chemical substance (yeast gene YHR199C, incubated two hours with chemical substance): 2.0
- The level of expressed mRNA in the presence of chemical substance/The level of expressed mRNA in the absence of chemical substance (yeast gene YIL023C, incubated two hours with chemical substance): 0.7
- The level of expressed mRNA in the presence of chemical substance/The level of expressed mRNA in the absence of chemical substance (yeast gene YIL041W, incubated two hours with chemical substance): 1.3
- The level of expressed mRNA in the presence of chemical substance/The level of expressed mRNA in the absence of chemical substance (yeast gene YIL087C, incubated two hours with chemical substance): 1.3
- The level of expressed mRNA in the presence of chemical substance/The level of expressed mRNA in the absence of chemical substance (yeast gene YJL057C, incubated two hours with chemical substance): 1.6
- The level of expressed mRNA in the presence of chemical substance/The level of expressed mRNA in the absence of chemical substance (yeast gene YJL066C, incubated two hours with chemical substance): 1.0
- The level of expressed mRNA in the presence of chemical substance/The level of expressed mRNA in the absence of chemical substance (yeast gene YJL082W, incubated two hours with chemical substance): 0.5
- The level of expressed mRNA in the presence of chemical substance/The level of expressed mRNA in the absence of chemical substance (yeast gene YJL151C, incubated two hours with chemical substance): 1.3
- The level of expressed mRNA in the presence of chemical substance/The level of expressed mRNA in the absence of chemical substance (yeast gene YJL152W, incubated two hours with chemical substance): 1.4
- The level of expressed mRNA in the presence of chemical substance/The level of expressed mRNA in the absence of chemical substance (yeast gene YJL161W, incubated two hours with chemical substance): 2.2
- The level of expressed mRNA in the presence of chemical substance/The level of expressed mRNA in the absence of chemical substance (yeast gene YJL171C, incubated two hours with chemical substance): 1.0
- The level of expressed mRNA in the presence of chemical substance/The level of expressed mRNA in the absence of chemical substance (yeast gene YJR008W, incubated two hours with chemical substance): 1.2
- The level of expressed mRNA in the presence of chemical substance/The level of expressed mRNA in the absence of chemical substance (yeast gene YJR054W, incubated two hours with chemical substance): 1.2
- The level of expressed mRNA in the presence of chemical substance/The level of expressed mRNA in the absence of chemical substance (yeast gene YKL071W): 21.9
- The level of expressed mRNA in the presence of chemical substance/The level of expressed mRNA in the absence of chemical substance (yeast gene YKL086W, incubated two hours with chemical substance): 2.9
- The level of expressed mRNA in the presence of chemical substance/The level of expressed mRNA in the absence of chemical substance (yeast gene YKL107W): 3.4
- The level of expressed mRNA in the presence of chemical substance/The level of expressed mRNA in the absence of chemical substance (yeast gene YKL151C, incubated two hours with chemical substance): 1.3
- The level of expressed mRNA in the presence of chemical substance/The level of expressed mRNA in the absence of chemical substance (yeast gene YKL153W, incubated two hours with chemical substance): 1.1
